Series [1] can be described thus: in vitro. As to conditions: human, Caco-2.
Series [2] can be described thus: in vitro. The note with it: dog, MDCK.
A further series is described as follows: physchem. The note with it: PBS buffer, pH 7.4.

The Papp A→B is how fast a substance crosses the layer from the apical side. Read a low Papp A→B as slow passage. For orientation: solubility means the dissolved amount per volume that the medium holds. Read a high solubility as a readily soluble substance.

≈ marks a conversion by molar mass, not a printed value. Square brackets hold non-standard residues; d marks the D form. Peptide text beside a SMILES is read from it. Lys(Me2) = CN(C)CCCC[C@H](N)C(=O)O; NMeT = CN[C@H](C(=O)O)[C@@H](C)O; NMeA = CN[C@@H](C)C(=O)O

With `C[C@@H]1NC(=O)[C@H](CCCCN)NC(=O)[C@H](Cc2ccccc2)NC(=O)[C@H](Cc2ccc(O)cc2)NC(=O)[C@H](CO)NC1=O` (cyclo(ASYFK)), in the series “in vitro [1]”, the Papp A→B at 1 h came to 0.83 ×10⁻⁶ cm/s.

`CC(C)C[C@@H]1NC(=O)[C@H]([C@@H](C)O)N(C)C(=O)[C@H]2CCCN2C(=O)[C@H](CC(C)C)NC(=O)[C@H](C)N(C)C(=O)[C@H](CC(C)C)NC(=O)[C@H]([C@@H](C)O)N(C)C(=O)[C@H]2CCCN2C(=O)[C@H](CC(C)C)NC(=O)[C@H](C)N(C)C1=O` (cyclo(L[NMeA]L[dP][NMeT]L[NMeA]L[dP][NMeT])): the apical-to-basolateral permeability (Papp A→B) at 2 h in the series “in vitro [2]” stood at 0.593 ×10⁻⁶ cm/s. The compound also returned a solubility in “physchem” of 880 µM (≈ 922 µg/mL).

The compound `COC[C@@H]1NC(=O)[C@H](CC(N)=O)NC(=O)[C@H](CCCCN(C)C)NC(=O)[C@H](Cc2ccccc2)NC(=O)[C@H](Cc2ccc(OC)cc2)NC1=O` (cyclo([Lys(Me2)]NS(Me)Y(Me)F)) returned an apparent permeability from apical to basolateral (Papp A→B) at 1 h in the series “in vitro [1]” of 5.55 ×10⁻⁶ cm/s.
